Reference: patent US20070117770A1, “Human ribosomal DNA (rDNA) and ribosomal RNA (rRNA) nucleic acids and uses thereof” (Cylene Pharmaceuticals, Inc., priority 2005, published 2007)

Legend:
[1] = test system: c-myc mRNA in HCT116 cells; assay: RNA Polymerase II-dependent RNA synthesis (c-myc mRNA, Taqman qRT-PCR); type: cell-based; conditions: at the tested concentrations
Description: Effects of compound A-1 and compound B-1 on DNA synthesis, RNA synthesis and protein synthesis were determined in HCT116 cells. HCT116 cells were plated overnight at 100,000 cells per mL. Next day cells were treated with increasing amounts of either compound A-1 or compound B-1 followed by one hour incubation with BrdU label (from a BrdU Cell proliferation Assay Kit, Calbiochem) to monitor DNA synthesis; […] of ^3H-uridine to monitor total RNA synthesis; […] of ^3H-methionine to monitor protein synthesis or plain media to monitor RNA Polymerase II-dependent RNA synthesis. DNA synthesis was assessed using a BrdU-ELISA (BrdU Cell proliferation Assay Kit, Calbiochem). To measure total RNA synthesis, total RNA from treated cells was isolated with a RNease kit (QIAGEN), levels of total RNA were assessed with Ribogreen reagent (Invitrogen) and the newly synthesized tritiated RNA was measured in a scintillation Counter (Perkin Elmer). To measure effects on protein synthesis, cells were lysed in a RIPA buffer, and total protein was precipitated with 10% TCA on a glass-filters. Newly synthesized tritiated protein was measured in a scintillation Counter (Perkin Elmer). Effects of drugs on […] RNA synthesis were assessed by monitoring levels of a c-myc mRNA, which has a relatively short half-life of approximately 30 minutes, by Taqman qRT-PCR (ABI).

IGF-1R(h) = IGF-1R(h) (Homo sapiens, UniProt P08069); assay: Protein kinase inhibition assay; type: biochemical; conditions: read-out: percent residual activity of IGF-1R(h)
Sequence of IGF-1R(h) (P08069 31-1367): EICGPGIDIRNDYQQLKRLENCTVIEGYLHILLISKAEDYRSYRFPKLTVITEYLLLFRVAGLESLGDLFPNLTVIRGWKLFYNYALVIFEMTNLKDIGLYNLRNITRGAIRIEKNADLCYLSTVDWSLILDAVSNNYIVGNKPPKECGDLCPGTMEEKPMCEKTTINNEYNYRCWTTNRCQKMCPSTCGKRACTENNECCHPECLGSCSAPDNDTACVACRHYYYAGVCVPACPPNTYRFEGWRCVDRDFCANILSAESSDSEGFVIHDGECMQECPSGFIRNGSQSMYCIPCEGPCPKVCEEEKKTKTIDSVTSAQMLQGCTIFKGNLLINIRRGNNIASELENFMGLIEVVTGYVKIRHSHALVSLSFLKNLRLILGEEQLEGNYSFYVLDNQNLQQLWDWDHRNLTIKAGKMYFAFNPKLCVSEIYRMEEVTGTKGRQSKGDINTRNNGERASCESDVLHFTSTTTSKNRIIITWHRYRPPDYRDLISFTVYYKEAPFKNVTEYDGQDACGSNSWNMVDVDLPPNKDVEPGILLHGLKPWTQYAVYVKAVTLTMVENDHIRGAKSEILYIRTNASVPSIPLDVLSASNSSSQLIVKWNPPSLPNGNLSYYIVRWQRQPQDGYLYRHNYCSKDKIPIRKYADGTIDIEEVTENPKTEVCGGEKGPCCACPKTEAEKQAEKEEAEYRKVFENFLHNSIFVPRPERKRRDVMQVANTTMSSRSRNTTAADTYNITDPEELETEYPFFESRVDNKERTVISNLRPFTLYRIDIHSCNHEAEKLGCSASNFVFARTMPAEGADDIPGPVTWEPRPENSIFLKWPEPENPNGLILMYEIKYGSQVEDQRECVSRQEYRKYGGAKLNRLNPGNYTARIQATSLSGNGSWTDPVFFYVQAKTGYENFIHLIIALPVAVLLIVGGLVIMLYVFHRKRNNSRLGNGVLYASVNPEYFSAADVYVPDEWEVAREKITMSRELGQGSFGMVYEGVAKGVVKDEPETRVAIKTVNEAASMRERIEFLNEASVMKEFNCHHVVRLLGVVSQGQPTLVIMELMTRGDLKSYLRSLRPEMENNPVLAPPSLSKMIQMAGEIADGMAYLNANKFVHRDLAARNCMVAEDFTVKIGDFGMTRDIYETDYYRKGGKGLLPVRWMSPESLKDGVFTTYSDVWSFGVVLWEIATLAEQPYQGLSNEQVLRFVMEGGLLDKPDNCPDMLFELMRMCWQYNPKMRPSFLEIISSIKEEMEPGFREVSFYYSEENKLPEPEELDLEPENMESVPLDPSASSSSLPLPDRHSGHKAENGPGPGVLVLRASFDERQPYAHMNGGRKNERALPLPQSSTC
Description: (§1) Certain compounds were tested for activity in protein kinase inhibition assays. All substrates were dissolved and diluted to working stocks in de-ionized water, apart from histone H1 (10× working stock in 20 mM MOPS pH 7.0), PDKtide (10× working stock in 50 mM Tris pH 7.0) ATF2 (which is typically stored at a 20× working stock in 50 mM Tris pH 7.5, 150 mM NaCl, 0.1 mM EGTA, 0.03% Brij-35, 50% glycerol, 1 mM benzamidine, 0.2 mM PMSF and 0.1% R-mercaptoethanol), KKLNRTLSFAEPG (SEQ ID NO:203) and RRRLSFAEPG (SEQ ID NO:204) (50 mM HEPES pH 7.4) and GGEEEEYFELVKKKK (SEQ ID NO:205) (20 mM MOPS pH 7.0). All kinases were pre-diluted to a 10× working concentration prior to addition into the assay. The composition of the dilution buffer for each kinase is detailed below.
(§2) In a final reaction volume of 25 μl, IGF-1R (h) (5-10 mU) is incubated with 50 mM Tris pH 7.5, 0.1 mM EGTA, 0.1 mM Na3VO4, 0.1% R-mercaptoethanol, 250 μM KKKSPGEYVNIEFG (SEQ ID NO:207), 10 mM MnCl2, 10 mM MgAcetate and [gamma-33P-ATP] (specific activity approx. 500 cpm/pmol, concentration as required). The reaction is initiated by the addition of the MgATP mix. After incubation for 40 minutes at room temperature, the reaction is stopped by the addition of 5 μl of a 3% phosphoric acid solution. […]

NEK6(h) = NEK6(h) (Homo sapiens, UniProt Q9HC98); assay: Protein kinase inhibition assay; type: biochemical; conditions: read-out: percent residual activity of NEK6(h)
Sequence of NEK6(h) (Q9HC98 whole entry): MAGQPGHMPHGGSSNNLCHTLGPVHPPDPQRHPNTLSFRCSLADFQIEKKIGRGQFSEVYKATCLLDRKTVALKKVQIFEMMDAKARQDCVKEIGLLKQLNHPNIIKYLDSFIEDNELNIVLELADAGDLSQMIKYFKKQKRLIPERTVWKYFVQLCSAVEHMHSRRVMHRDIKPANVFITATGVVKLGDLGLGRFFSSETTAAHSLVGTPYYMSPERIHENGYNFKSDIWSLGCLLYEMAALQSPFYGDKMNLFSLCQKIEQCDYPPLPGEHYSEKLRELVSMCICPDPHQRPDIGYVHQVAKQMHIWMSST
Description: as §1
(§3) In a final reaction volume of 25 μl, NEK6 (h) (5-10 mU) is incubated with 8 mM MOPS pH 7.0, 0.2 mM EDTA, 300 μM FLAKSFGSPNRAYKK (SEQ ID NO:221), 10 mM MgAcetate and [gamma-33P-ATP] (specific activity approx. 500 cpm/pmol, concentration as required). The reaction is initiated by the addition of the MgATP mix. After incubation for 40 minutes at room temperature, the reaction is stopped by the addition of 5 μl of a 3% phosphoric acid solution. 10 μl of the reaction is then spotted onto a P30 filtermat and washed three times for 5 minutes in 75 mM phosphoric acid and once in methanol prior to drying and scintillation counting.

NEK2(h) = NEK2(h) (Homo sapiens, UniProt P51955); assay: Protein kinase inhibition assay; type: biochemical; conditions: read-out: percent residual activity of NEK2(h)
Sequence of NEK2(h) (P51955 whole entry): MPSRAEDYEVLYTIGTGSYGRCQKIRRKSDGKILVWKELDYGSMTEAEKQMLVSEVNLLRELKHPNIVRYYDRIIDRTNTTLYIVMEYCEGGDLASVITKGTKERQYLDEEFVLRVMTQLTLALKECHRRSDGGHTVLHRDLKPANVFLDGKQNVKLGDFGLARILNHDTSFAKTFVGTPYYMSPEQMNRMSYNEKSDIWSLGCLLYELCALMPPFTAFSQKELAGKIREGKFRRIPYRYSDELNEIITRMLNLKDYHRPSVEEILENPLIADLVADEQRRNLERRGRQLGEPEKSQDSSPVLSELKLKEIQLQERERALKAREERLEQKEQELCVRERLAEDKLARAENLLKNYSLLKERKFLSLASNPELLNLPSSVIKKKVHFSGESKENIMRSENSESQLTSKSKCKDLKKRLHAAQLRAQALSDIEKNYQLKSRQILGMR
Description: as §1
as §3, with “NEK2” for “NEK6”, “0.33 mg/ml myelin basic protein,” for “300 μM FLAKSFGSPNRAYKK (SEQ ID NO:221),”

EphA5(h) = EphA5(h) (Homo sapiens, UniProt P54756); assay: Protein kinase inhibition assay; type: biochemical; conditions: read-out: percent residual activity of EphA5(h)
Sequence of EphA5(h) (P54756 25-1037): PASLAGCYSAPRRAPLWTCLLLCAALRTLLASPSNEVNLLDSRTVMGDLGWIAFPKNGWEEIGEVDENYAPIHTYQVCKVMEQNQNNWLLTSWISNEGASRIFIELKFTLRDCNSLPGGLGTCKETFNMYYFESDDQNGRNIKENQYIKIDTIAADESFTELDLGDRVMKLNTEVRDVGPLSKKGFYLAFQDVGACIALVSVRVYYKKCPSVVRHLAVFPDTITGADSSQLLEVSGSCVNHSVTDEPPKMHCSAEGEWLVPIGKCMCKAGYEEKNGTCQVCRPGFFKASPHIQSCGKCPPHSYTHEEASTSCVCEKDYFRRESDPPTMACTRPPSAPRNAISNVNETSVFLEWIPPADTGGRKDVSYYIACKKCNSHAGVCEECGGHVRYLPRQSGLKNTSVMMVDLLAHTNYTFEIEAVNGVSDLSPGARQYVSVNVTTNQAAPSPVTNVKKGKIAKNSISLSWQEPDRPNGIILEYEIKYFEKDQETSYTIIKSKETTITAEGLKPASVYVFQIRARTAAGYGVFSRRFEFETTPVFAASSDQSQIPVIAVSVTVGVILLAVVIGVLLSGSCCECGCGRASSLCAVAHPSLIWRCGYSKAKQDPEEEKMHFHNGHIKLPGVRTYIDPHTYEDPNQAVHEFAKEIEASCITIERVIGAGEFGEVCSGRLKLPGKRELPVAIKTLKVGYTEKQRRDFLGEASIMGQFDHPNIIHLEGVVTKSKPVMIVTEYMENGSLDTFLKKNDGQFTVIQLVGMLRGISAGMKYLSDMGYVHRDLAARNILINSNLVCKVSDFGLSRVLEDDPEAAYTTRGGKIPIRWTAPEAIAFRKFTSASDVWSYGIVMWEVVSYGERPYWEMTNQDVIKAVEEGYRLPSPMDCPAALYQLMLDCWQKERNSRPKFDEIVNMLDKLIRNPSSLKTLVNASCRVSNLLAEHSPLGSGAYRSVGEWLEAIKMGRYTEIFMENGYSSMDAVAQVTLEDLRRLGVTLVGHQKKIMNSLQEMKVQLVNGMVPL
Description: as §1
as §3, with “EphA5” for “NEK6”, “2.5 mM MnCl2, 0.1 mg/ml poly (Glu, Tyr) 4:1,” for “300 μM FLAKSFGSPNRAYKK (SEQ ID NO:221),”, “Filtermat A” for “P30 filtermat”

Lyn(m) = Lyn(m) (Mus musculus, UniProt P25911); assay: Protein kinase inhibition assay; type: biochemical; conditions: read-out: percent residual activity of Lyn(m)
Sequence of Lyn(m) (P25911 whole entry): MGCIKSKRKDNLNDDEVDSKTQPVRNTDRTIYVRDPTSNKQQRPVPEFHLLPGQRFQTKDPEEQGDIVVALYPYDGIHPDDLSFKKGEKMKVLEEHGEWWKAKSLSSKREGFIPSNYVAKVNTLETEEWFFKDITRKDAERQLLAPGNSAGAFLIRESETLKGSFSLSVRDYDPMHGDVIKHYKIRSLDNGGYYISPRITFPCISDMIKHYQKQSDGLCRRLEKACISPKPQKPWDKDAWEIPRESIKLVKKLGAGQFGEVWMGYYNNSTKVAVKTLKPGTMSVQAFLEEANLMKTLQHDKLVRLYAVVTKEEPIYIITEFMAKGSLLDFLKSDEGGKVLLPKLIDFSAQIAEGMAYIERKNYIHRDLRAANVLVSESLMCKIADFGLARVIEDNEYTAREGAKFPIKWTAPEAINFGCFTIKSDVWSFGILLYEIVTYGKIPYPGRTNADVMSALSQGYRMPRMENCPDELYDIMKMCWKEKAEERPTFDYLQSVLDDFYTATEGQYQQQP
Description: as §1
as §2, with “Lyn (m)” for “IGF-1R (h)”, “0.1 mg/ml poly(Glu, Tyr) 4:1,” for “250 μM KKKSPGEYVNIEFG (SEQ ID NO:207), 10 mM MnCl2,”

Row | SMILES | effect on c-myc mRNA levels [1] | remaining activity at 2.5 µM (IGF-1R(h)) [%] | remaining activity at 2.5 µM (NEK6(h)) [%] | remaining activity at 2.5 µM (NEK2(h)) [%] | remaining activity at 2.5 µM (EphA5(h)) [%] | remaining activity at 2.5 µM (Lyn(m)) [%]
1 | CN1CCCC1CCNC(=O)c1cn2c3c(c(N4CCC(c5cnccn5)C4)c(F)cc3c1=O)Oc1cc3ccccc3cc1-2 (stereo not drawn) [Compound A-1] | no measureable effect | 103 | 78 | 65 | 111 | 89
2 | CC(=O)N1CCN(c2ccc3c(=O)c(C(=O)NCCN4CCCC4)c4n(C)c5ccccc5n4c3n2)CC1 [Compound B-1] | no measureable effect | 113 | 111 | 106 | 101 | 106
